Data as given in US20250085273A1, “NOVEL RAPID DRUG DISCOVERY FOR SEPSIS AND AGENTS FOR USE AS SEPSIS THERAPY” (priority 2023, published 2025).
Where two headings read alike, the source gives them in different places.

Legend:
[1] = tested on: 5-dpf zebrafish challenged with K. Pneumoniae LPS (45 μg/mL); test: Challenge with K. Pneumoniae LPS (45 μg/mL), 5-dpf zebrafish; assay type: in vivo, Danio rerio
Description: These tests followed the same methods described in the 5-dpf zebrafish confirmatory testing, but K. Pneumoniae LPS (45 μg/mL final in well concentration) was used instead of P. aeruginosa LPS.

α2C = molecular target: T1, α2C (Homo sapiens, UniProt P18825); settings: read-out: affinity (Ki) α2C; cited from earlier work
T1 sequence (P18825 1-462): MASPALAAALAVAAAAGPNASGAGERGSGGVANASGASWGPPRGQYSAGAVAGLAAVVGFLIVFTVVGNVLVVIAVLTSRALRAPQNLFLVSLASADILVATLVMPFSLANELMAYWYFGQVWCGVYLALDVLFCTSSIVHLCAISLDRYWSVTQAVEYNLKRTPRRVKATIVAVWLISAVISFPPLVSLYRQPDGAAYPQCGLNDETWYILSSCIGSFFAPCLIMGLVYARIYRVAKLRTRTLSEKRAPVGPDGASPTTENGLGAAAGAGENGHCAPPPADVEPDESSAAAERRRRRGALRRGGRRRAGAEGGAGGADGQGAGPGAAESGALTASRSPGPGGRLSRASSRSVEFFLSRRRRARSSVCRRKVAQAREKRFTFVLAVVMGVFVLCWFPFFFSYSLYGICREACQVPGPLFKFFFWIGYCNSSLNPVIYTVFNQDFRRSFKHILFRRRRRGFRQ

[2] = tested on: zebrafish (4 dpf pre-treated, LPS exposure at 5-dpf) challenged with P. aeruginosa LPS 60 μg/mL; assay type: in vivo, Danio rerio
Outline: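 PTU-treated 4 dpf zebrafish embryos received a 24-hour drug pre-treatment at 28.5 °C, alongside an untreated parallel group, before challenge at 5 dpf with P. aeruginosa LPS at 60 μg/mL. Tail edema and mortality were scored at 6 and 24 h post exposure, followed by a neurobehavioral test.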

5-HT2B = 5-HT2B (Homo sapiens, UniProt P41595); settings: read-out: affinity (Ki) 5-HT2B; cited from earlier work
[3] = tested on: 5-dpf zebrafish larvae challenged with P. aeruginosa LPS 60 μg/mL; assay type: in vivo, Danio rerio; settings: compound 10 μM
noradrenergic α1A = molecular target: T2, noradrenergic α1A (Homo sapiens, UniProt P35348); settings: read-out: affinity (Ki) α1A; cited from earlier work
T2 sequence (P35348 1-466): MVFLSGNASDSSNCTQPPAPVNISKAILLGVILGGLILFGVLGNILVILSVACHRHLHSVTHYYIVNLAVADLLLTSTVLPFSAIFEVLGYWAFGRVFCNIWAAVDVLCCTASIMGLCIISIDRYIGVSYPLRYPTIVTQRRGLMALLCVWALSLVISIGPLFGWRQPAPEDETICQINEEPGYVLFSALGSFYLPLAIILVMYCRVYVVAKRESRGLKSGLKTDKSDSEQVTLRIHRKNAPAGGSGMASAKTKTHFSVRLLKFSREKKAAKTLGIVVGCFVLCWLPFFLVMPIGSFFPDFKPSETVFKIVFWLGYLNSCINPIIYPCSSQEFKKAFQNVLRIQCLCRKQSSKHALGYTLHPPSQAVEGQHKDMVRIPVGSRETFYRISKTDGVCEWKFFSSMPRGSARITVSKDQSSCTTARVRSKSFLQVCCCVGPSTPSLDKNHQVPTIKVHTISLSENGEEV

muscarinic M1 receptor = molecular target: T3, muscarinic M1 receptor (Homo sapiens, UniProt P11229); settings: at 10 μM; cited from earlier work
T3 sequence (P11229 1-460): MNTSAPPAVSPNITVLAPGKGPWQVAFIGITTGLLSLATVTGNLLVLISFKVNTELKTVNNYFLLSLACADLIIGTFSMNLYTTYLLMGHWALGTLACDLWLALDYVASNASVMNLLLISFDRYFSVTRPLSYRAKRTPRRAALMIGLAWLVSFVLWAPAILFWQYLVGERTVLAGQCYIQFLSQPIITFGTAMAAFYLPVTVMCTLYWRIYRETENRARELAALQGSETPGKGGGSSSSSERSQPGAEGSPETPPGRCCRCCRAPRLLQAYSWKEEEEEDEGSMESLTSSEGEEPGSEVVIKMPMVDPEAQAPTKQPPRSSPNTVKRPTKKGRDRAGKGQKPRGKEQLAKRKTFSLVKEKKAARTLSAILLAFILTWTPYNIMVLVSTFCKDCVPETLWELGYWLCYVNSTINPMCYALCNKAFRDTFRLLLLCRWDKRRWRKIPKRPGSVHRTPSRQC

[4] = number of n = 16 fish, 24-hour 10 μM drug pre-treatment
[5] = number of n = 16 fish, no 24-hour pre-treatment

5-HT2B, sequence (P41595 whole entry, species assumed): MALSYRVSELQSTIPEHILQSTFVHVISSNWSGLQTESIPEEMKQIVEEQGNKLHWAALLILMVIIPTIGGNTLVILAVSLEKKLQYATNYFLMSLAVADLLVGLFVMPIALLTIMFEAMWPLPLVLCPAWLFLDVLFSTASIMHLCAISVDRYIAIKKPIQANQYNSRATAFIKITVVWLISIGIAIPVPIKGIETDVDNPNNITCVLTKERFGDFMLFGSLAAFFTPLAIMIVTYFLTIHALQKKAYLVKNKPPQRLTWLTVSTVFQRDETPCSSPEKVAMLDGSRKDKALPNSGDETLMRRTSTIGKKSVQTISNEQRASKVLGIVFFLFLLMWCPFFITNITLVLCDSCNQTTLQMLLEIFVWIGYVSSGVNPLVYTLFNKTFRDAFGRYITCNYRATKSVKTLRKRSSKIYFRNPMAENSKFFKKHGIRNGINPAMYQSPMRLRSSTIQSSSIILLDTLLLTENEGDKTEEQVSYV

O=c1ccc2ccc(OCCCCN3CCN(c4cccc5sccc45)CC3)cc2[nH]1 [Compound 45, Brexpiprazole]
rescue of tail edema and mortality [1]: 100% | Ki (α2C): 0.59 nM | Pre-Treatment Rescue (n = 16) ([2]; 24-hour drug pre-treatment, P. aeruginosa LPS 60 μg/mL): 94% | No Pre-Treatment Rescue (n = 16) ([2]; no 24-hour drug pre-treatment, P. aeruginosa LPS 60 μg/mL): 94% | 24 hour Tail Edema, No-Drug Pretreatment ([2]; number of n = 16 fish, 10 μM drug with LPS 60 μg/mL, no 24-hour pre-treatment): 1 fish | 24 Hour Mortality and Tail Edema, Drug Pretreatment [2, 4]: 1 fish | 24 Hour Mortality, Drug Pretreatment [2, 4]: 1 fish | 24 hour Tail Edema, Drug Pretreatment ([2]; number of n = 16 fish, 24-hour 10 μM drug pre-treatment before LPS 60 μg/mL): 0 fish | 24 Hour Mortality and Tail Edema, No-Drug Pretreatment [2, 5]: 1 fish | 24 Hour Mortality, No Drug Pretreatment [2, 5]: 0 fish | Ki (5-HT2B): 1.9 nM | 5 dpf Embryos Percent Rescue (Mort + Tail Edema) ([3]; 5-dpf larvae): 94% | rescue of tail edema and mortality (sepsis rescue rate) at 5-dpf [3]: 94% | rescue of tail edema and mortality (sepsis rescue rate) at 5-dpf ([3]; listed as brexpiprazole): 100% | Ki (noradrenergic α1A): 3.8 nM | inhibition, muscarinic M1 receptor (muscarinic M1 receptor): 67%
